Source: US9394297B2, “Amides as pim inhibitors” (AMGEN INC., priority 2012, dated 2016)
Like-named read-outs stand apart in the source and are kept apart here.

Columns and labels:
Pim-2 = Pim-2 (Homo sapiens (Human), UniProt Q9P1W9); experiment: Pim-Mn enzyme assay (HTRF, 384-well), Pim-2; type: biochemical; conditions: read-out: Pim-2-Mn IC50 IP
Pim-1 = Pim-1 (Homo sapiens (Human), UniProt P11309); experiment: Pim-Mn enzyme assay (HTRF, 384-well), Pim-1; type: biochemical; conditions: read-out: Pim-1-Mn IC50 IP
Sequence of Pim-1 (P11309 whole entry): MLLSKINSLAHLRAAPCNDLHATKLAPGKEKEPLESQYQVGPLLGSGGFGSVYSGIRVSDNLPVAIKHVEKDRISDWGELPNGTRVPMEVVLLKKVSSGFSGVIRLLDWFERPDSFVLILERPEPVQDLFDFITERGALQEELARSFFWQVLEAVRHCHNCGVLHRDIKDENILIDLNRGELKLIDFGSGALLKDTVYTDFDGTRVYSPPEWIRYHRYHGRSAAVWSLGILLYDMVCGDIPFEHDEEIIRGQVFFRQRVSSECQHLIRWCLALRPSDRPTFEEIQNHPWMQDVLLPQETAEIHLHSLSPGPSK

KMS-12-BM cell lines = experiment: KMS12 #2 flow cytometry assay (phospho-BAD Ser112); type: cell-based; conditions: KMS-12-BM cells, pBAD Ser112 by flow cytometry, 110 min with compound, read-out: KMS-12-Flow IC50 IP
[1] = Pim-2 enzyme 0.5 pM, ATP 1.5 μM, BAD (S112) 0.5 μM, HTRF, 22-point curve
[2] = Pim-1 enzyme 5 pM, ATP 1.5 μM, BAD (S112) 0.5 μM, HTRF, 22-point curve

Sequence of Pim-2 (Q9P1W9 whole entry): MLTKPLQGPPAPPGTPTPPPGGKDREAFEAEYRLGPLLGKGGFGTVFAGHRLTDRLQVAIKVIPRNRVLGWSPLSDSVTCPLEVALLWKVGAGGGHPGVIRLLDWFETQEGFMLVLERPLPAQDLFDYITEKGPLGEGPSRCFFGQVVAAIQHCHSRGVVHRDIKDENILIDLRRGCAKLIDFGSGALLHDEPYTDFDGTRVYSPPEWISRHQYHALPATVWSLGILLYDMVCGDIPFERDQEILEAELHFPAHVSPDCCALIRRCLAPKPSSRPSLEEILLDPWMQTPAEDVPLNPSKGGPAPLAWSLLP

Compound	IC50 (Pim-2; [1]) [nM]	IC50 (Pim-1; [2]) [nM]	IC50 (KMS-12-BM cell lines; Homo sapiens, 110 min) [nM]	IC50 (Pim-2) [nM]	IC50 (Pim-1) [nM]	IC50 (KMS-12-BM cell lines) [nM]
Cc1ccccc1-c1nc2c(-c3cc4c([nH]3)CCNC4=O)cccc2nc1C [Example 426, 2-(2-Methyl-3-(o-tolyl)quinoxalin-5-yl)-6,7-dihydro-1H-pyrrolo[3,2-c]pyridin-4(5H)-one]	127	52.3	> 40000	–	–	–
Cc1nc2cccc(-c3[nH]c4c(c3Cl)C(=O)NC4)c2nc1NC1(C)CC1 [Example 358, 3-Chloro-2-(2-methyl-3-((1-methylcyclopropyl)amino)quinoxalin-5-yl)-5,6-dihydropyrrolo[3,4-b]pyrrol-4(1H)-one]	0.0783	0.0339	49.6	–	–	–
Cc1nc2cccc(-c3cc4c([nH]3)CCNC4=O)c2nc1-c1nccn1C [Example 432, 2-(2-Methyl-3-(1-methyl-1H-imidazol-2-yl)quinoxalin-5-yl)-6,7-dihydro-1H-pyrrolo[3,2-c]pyridin-4(5H)-one]	244	413	> 40000	–	–	–
CC(C)(C)Nc1nc2c(-c3cc4c([nH]3)CCNC4=O)cccc2nc1N1CCC1 [Example 347, 2-(2-(1-azetidinyl)-3-(tert-butylamino)-5-quinoxalinyl)-1,5,6,7-tetrahydro-4H-pyrrolo[3,2-c]pyridin-4-one]	–	–	3660	10.5	4.55	–
Cc1nc2cccc(-c3cc(C(N)=O)n[nH]3)c2nc1NC(C)(C)C [Example 467, 5-(3-(tert-butylamino)-2-methylquinoxalin-5-yl)-1H-pyrazole-3-carboxamide]	8.9	21.6	3880	–	–	–
CCOc1cnc2cccc(-c3cc4c([nH]3)CCNC4=O)c2n1 [Example 337, 2-(3-ethoxy-5-quinoxalinyl)-1,5,6,7-tetrahydro-4H-pyrrolo[3,2-c]pyridin-4-one]	54.6	71.9	6920	–	–	–
C[C@H]1NC(=O)c2cc(-c3cccc4c(=O)n(C)c(NC5(C)CCC5)nc34)[nH]c21 [Example 465, 3-methyl-2-((1-methylcyclobutyl)amino)-8-((6R)-6-methyl-4-oxo-1,4,5,6-tetrahydropyrrolo[3,4-b]pyrrol-2-yl)-4(3H)-quinazolinone]	0.13	0.074	35	–	–	–
Cc1nc2cccc(-c3cc4c([nH]3)CCNC4=O)c2nc1NC(C)(C)CNCCS(C)(=O)=O [Example 342, 2-(3-((1,1-dimethyl-2-((2-(methylsulfonyl)ethyl)amino)ethyl)amino)-2-methyl-5-quinoxalinyl)-1,5,6,7-tetrahydro-4H-pyrrolo[3,2-c]pyridin-4-one]	20.4	28.1	11500	–	–	–
Cc1nc2cccc(-c3cc4c([nH]3)CCNC4=O)c2nc1Cl [Example 425, 2-(3-Chloro-2-methylquinoxalin-5-yl)-6,7-dihydro-1H-pyrrolo[3,2-c]pyridin-4(5H)-one]	521	392	> 40000	–	–	–
Cc1nc2cccc(-c3cc4c([nH]3)CCNC4=O)c2nc1N[C@H]1C[C@@H](NC(=O)OC(C)(C)C)C1 [Example 434, tert-butyl ((1s,3s)-3-((3-methyl-8-(4-oxo-4,5,6,7-tetrahydro-1H-pyrrolo[3,2-c]pyridin-2-yl)quinoxalin-2-yl)amino)cyclobutyl)carbamate]	17.2	18.1	–	–	–	1310
Cc1nc2cccc(-c3cc4c([nH]3)CCNC4=O)c2nc1NC(C)c1ccccn1 (stereo not drawn) [Example 321, 2-(2-methyl-3-((1-(pyridin-2-yl)ethyl)amino)quinoxalin-5-yl)-6,7-dihydro-1H-pyrrolo[3,2-c]pyridin-4(5H)-one]	156	98.6	> 40000	–	–	–
Cc1nc2cccc(-c3cc4c([nH]3)C(C)N(C(=O)OC(C)(C)C)C4=O)c2nc1NC(C)(C)C (stereo not drawn) [Example 316, tert-butyl 2-(3-(tert-butylamino)-2-methylquinoxalin-5-yl)-6-methyl-4-oxo-4,6-dihydropyrrolo[3,4-b]pyrrole-5(1H)-carboxylate]	75	36	21500	–	–	–
Cc1nc2cccc(-c3cc4c([nH]3)CNC4=O)c2nc1NC1CC1 [Example 363, 2-(3-(cyclopropylamino)-2-methylquinoxalin-5-yl)-5,6-dihydropyrrolo[3,4-b]pyrrol-4(1H)-one]	0.297	0.345	142	–	–	–
CCC(C)(C)Nc1nc2c(-c3cc4c([nH]3)CCNC4=O)c(F)ccc2nc1C [Example 375, 2-(6-fluoro-2-methyl-3-(tert-pentylamino)quinoxalin-5-yl)-6,7-dihydro-1H-pyrrolo[3,2-c]pyridin-4(5H)-one]	0.275	0.259	119	–	–	–
Cc1nc2cccc(-c3cc4c(n3C(=O)OC(C)(C)C)CCNC4=O)c2nc1NC(C)(C)C [Example 290, tert-butyl 2-(3-(tert-butylamino)-2-methylquinoxalin-5-yl)-4-oxo-4,5,6,7-tetrahydro-1H-pyrrolo[3,2-c]pyridine-1-carboxylate]	35.8	39.7	4190	–	–	–
Cc1nc2cccc(-c3cc4c([nH]3)CCNC4=O)c2nc1-c1ccoc1 [Example 431, 2-(3-(Furan-3-yl)-2-methylquinoxalin-5-yl)-6,7-dihydro-1H-pyrrolo[3,2-c]pyridin-4(5H)-one]	61.9	67.3	5060	–	–	–
Cc1cccnc1-c1nc2c(-c3cc4c([nH]3)CCNC4=O)cccc2nc1C [Example 430, 2-(2-Methyl-3-(3-methylpyridin-2-yl)quinoxalin-5-yl)-6,7-dihydro-1H-pyrrolo[3,2-c]pyridin-4(5H)-one]	257	200	24800	–	–	–
Cc1nc2cccc(-c3cc4c([nH]3)CCN(CO)C4=O)c2nc1NC(C)(C)C [Example 299, 2-(3-(tert-butylamino)-2-methylquinoxalin-5-yl)-5-(hydroxymethyl)-6,7-dihydro-1H-pyrrolo[3,2-c]pyridin-4(5H)-one]	9	7	> 40000	–	–	–
Cc1nc2cccc(-c3cc4c([nH]3)CCNC4=O)c2nc1N[C@H]1C[C@H](O)C1 [Example 442, 2-(3-((trans-3-Hydroxycyclobutyl)amino)-2-methylquinoxalin-5-yl)-6,7-dihydro-1H-pyrrolo[3,2-c]pyridin-4(5H)-one]	1.73	3.4	527	–	–	–
COCCn1c(NC(C)(C)C)nc2c(-c3cc4c([nH]3)[C@@H](C)NC4=O)cccc2c1=O [Example 459, 2-(tert-butylamino)-3-(2-methoxyethyl)-8-((6R)-6-methyl-4-oxo-1,4,5,6-tetrahydropyrrolo[3,4-b]pyrrol-2-yl)-4(3H)-quinazolinone]	0.193	0.199	76	–	–	–
C#Cc1nc2cccc(-c3cc4c([nH]3)CCNC4=O)c2nc1NC(C)(C)C [Example 307, 2-(3-(tert-butylamino)-2-ethynylquinoxalin-5-yl)-6,7-dihydro-1H-pyrrolo[3,2-c]pyridin-4(5H)-one]	1.45	1.63	590	–	–	–
CC(C)(C)Nc1nc2c(-c3cc4c([nH]3)CCNC4=O)cccc2nc1Cl [Example 345, 2-(3-(tert-butylamino)-2-chloro-5-quinoxalinyl)-1,5,6,7-tetrahydro-4H-pyrrolo[3,2-c]pyridin-4-one]	2.25	1	2730	–	–	–
